From patent US6383812B1, “Anti liver disease drug R-YEEE and method of synthesizing branched galactose-terminal glycoproteins” (Academia Sinica, priority 1999, dated 2002)

Experiments:
[1] = biological target: T1, asialoglycoprotein receptor (ASGPr) (Homo sapiens, UniProt P07306+P07307); assay: Affinity of synthetic ligand to the asialoglycoprotein receptor; assay type: binding; settings: relative to YEE(GalNAcAH)3; no method described
T1 sequence (P07306 1-291): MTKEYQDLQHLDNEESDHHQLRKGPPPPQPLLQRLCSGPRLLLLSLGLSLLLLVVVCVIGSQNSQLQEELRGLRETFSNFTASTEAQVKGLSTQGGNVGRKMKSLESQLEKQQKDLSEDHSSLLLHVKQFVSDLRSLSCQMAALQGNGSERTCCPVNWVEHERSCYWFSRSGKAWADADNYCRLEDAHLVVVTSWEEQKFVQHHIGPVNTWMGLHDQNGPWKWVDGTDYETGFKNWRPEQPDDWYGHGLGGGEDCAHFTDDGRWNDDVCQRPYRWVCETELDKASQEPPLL
T1 sequence (P07307 1-311): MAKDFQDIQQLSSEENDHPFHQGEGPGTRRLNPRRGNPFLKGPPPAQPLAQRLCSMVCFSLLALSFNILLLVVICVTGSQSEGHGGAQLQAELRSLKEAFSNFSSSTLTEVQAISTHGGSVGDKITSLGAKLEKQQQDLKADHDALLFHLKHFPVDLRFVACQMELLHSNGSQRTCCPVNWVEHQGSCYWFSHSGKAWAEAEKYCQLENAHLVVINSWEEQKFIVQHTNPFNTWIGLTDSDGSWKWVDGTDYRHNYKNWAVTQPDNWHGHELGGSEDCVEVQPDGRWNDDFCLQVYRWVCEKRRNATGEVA

[2] = biological target: T1, asialoglycoprotein receptor (ASGPr); settings: reported by Lee et al., Glycoconjugate J., 1987; cited from earlier work

Substance | affinity to asialoglycoprotein receptors [1] | affinity to the ASGP-r [2]
tris-(N-acetylgalactosamine aminohexyl)glycoside of tyrosyl(glutamyl)2 glutamate [YEEE(GalNAcAH)3] | comparable to YEE(GalNAcAH)3 | –
tris-(N-acetylgalactosamine aminohexyl)glycoside of tyrosyl(glutamyl)glutamate [YEE(GalNAcAH)3] | – | subnanomolar
